# Patent US20090130707A1, “Methods of reducing the inhibitory effect of a redox active metal ion on the enzymatic hydrolysis of cellulosic material” (priority 2007, published 2009)
# Like-named read-outs stand apart in the source and are kept apart here.
# Legend:
# [1] = tested on: Cellulolytic Enzyme Composition #1; assay: mini-plate-scale AVICEL hydrolysis by Cellulolytic Enzyme Composition #1; format: biochemical, Trichoderma reesei; details: for Effect on enzymatic cellulolysis: loss in initial rate / Effect on enzymatic cellulolysis: loss in extended hydrolysis extent / Effect on hydrolysis (in words) / Effect on enzymatic cellulolysis: gain in initial rate / Effect on enzymatic cellulolysis: gain in extended hydrolysis extent: 10 mM; for Effect on enzymatic cellulolysis: loss in initial rate / Effect on enzymatic cellulolysis: loss in extended hydrolysis extent / Effect on enzymatic cellulolysis: gain in initial rate / Effect on enzymatic cellulolysis: gain in extended hydrolysis extent: 25 g AVICEL and 0.25 g enzyme per liter, pH 5, 50° C.; for Effect on enzymatic cellulolysis: loss in extended hydrolysis extent / Effect on enzymatic cellulolysis: gain in extended hydrolysis extent: after 4 days; for IC50: AVICEL hydrolysis, 0.2 to 2 mM inhibitor
# Description: Various (biologically common) divalent metal cations with variable ionic radii were tested in 2.8 ml Deep Well Microplates (VWR International, West Chester, Pa., USA) (“mini-plate-scale”) containing 1 ml suspensions of 25 g of AVICEL® per liter in 50 mM sodium acetate pH 5 at 50° C. Cellulolytic Enzyme Composition #1 was added at 0.25 g per liter for each hydrolysis. The mini-plates were sealed at 160° C. for 2 seconds using an ABGENE® ALPS 300™ sealer (ABgene, Rochester, N.Y., USA). The sealed mini-plates were incubated at 50° C. in an INNOVA® 4080 incubator shaker at 150 rpm. Soluble reducing sugars were measured by HPLC as described in Example 30.
# Iron-chelator complexes of variable size or redox property were tested for their ability to inhibit enzymatic hydrolysis of cellulose. […]
# [2] = cited from earlier work; for Radius: ionic radii in crystals, 6-ligand coordination
# [3] = read-out: I50 estimated based on limited data
# [4] = single-electron oxidation potential of iron-chelator complexes
# [5] = single-electron redox potential vs NHE
Compound,Effect on enzymatic cellulolysis: loss in initial rate [1],Effect on enzymatic cellulolysis: loss in extended hydrolysis extent [1],"IC50 [1, 3] [mM]","E° [2, 4]",IC50 ([1]; read-out: I50) [mM],Radius [2] [Å],"E° [2, 5] [V]",Effect on hydrolysis (in words) [1],Effect on enzymatic cellulolysis: gain in initial rate [1],Effect on enzymatic cellulolysis: gain in extended hydrolysis extent [1],Effect on hydrolysis over concentration range ([1]; 0.1 to 10 mM),E° ([2]; 2-electron E° (in parenthesis))
"O=C([O-])CN(CCN(CC(=O)[O-])CC(=O)[O-])CC(=O)[O-].[Fe+3].[Na+] [Fe(III)NaEDTA, FeNa(EDTA)]",~10%,~20%,~10,0.13^2 V,,,,,,,,
"O=S(=O)([O-])[O-].[Cu+2] [Cu(II), CuSO4]",~90%,~80%,,,0.2,0.73,0.153,,,,,
"[Cl-].[Cl-].[Mg+2] [Mg(II), MgCl2]",,,,,,0.72,−0.33,slight enhancement,"~20% gain in initial rate, ~20% gain in extended hydrolysis extent","~20% gain in initial rate, ~20% gain in extended hydrolysis extent",,
"[Ca+2].[Cl-].[Cl-] [Ca(II), CaCl2]",,,,,,1.00,−0.96,slight enhancement,"~20% gain in initial rate, ~20% gain in extended hydrolysis extent","~20% gain in initial rate, ~20% gain in extended hydrolysis extent",,
"O=C([O-])CN(CCN(CC(=O)[O-])CC(=O)[O-])CC(=O)[O-].[Fe+2].[Na+].[Na+] [Fe(II)Na2EDTA, FeNa2EDTA]","~80% loss in initial rate, ~80% loss in extended hydrolysis extent","~80% loss in initial rate, ~80% loss in extended hydrolysis extent",< 10,(=Fe(III)NaEDTA's),,,,,,,,
"Fe(2,2′-bipyridyl)3Cl3 [Fe(III)(2,2′BP)2Cl3]","~100% loss in initial rate, ~100% loss in extended hydrolysis extent","~100% loss in initial rate, ~100% loss in extended hydrolysis extent",,0.78 V,0.6 ± 0.1,,,,,,,
"O=S(=O)([O-])[O-].[Zn+2] [Zn(II), ZnSO4]","~20% loss in initial rate, ~20% loss in extended hydrolysis extent","~20% loss in initial rate, ~20% loss in extended hydrolysis extent",,,,0.74,−2.3,slight or moderate inhibition,,,,
"Fe(2,2′-bipyridyl)3Cl2 [Fe(II)(2,2′BP)2Cl2]","~40% loss in initial rate, ~40% loss in extended hydrolysis extent","~40% loss in initial rate, ~40% loss in extended hydrolysis extent",,,20,,,,,,,
"[Cl][Cr]([Cl])[Cl] [Cr(III), CrCl3]","~40% loss in initial rate, ~40% loss in extended hydrolysis extent","~40% loss in initial rate, ~40% loss in extended hydrolysis extent",> 10,,,0.62,−0.407,moderate,,,,
"[Cl][Ni][Cl] [Ni(II), NiCl2]",~20%,~10%,,,,0.69,−1.56,slight or moderate inhibition,,,,
"[Cl][Ru]([Cl])[Cl] [Ru(III), RuCl3]",~90%,~80%,,,0.15,0.68,0.249,pronounced,,,,
quinone [reference compound],,,~5,,,,,,,,,
"O=S(=O)([O-])[O-].[Mn+2] [Mn(II), MnSO4]",~10%,no change,,,,0.67,,slight or moderate inhibition,,,no effect,(−1.185) V
